According to patent US7626021B2, “Fused ring heterocycle kinase modulators” (SGX Pharmaceuticals, Inc., priority 2004, dated 2009):

molecular target: T1, Abl T315I KD (unphosphorylated c-Abl T315I kinase domain) (Mus musculus, UniProt P00520, T315I); assay: c-Abl T315I (unphosphorylated kinase domain) enzyme assay, PK/LDH coupled; type: biochemical; settings: mutant Abl kinase domain at zero phosphorylation state; read-out: Abl_T215l—0P IC50
T1 construct: purified and unphosphorylated T315I Abl kinase domain; made in house; host or cells: E. coli BL21(DE3)
T1 sequence (P00520 242-493 T315I limits assumed): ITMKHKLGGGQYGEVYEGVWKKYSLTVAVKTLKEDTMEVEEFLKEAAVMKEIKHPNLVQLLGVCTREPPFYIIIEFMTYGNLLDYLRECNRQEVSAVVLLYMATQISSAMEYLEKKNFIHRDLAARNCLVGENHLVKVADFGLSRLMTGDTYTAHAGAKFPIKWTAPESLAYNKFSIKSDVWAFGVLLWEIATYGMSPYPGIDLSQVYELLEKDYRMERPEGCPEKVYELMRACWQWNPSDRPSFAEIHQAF
Text: Although the first of these examples uses the kinase domain of a mutant form of Abl T315I (“Abl T315I KD”), the kinase assays may use various forms of mutant and wild type enzymes, including, for example, the entire protein, the kinase domain, or a portion thereof (e.g. Abl Y393F). The kinases used in the assays may also be of varying phosphorylation states. In the c-Abl example, a mutant kinase at a zero phosphorylation state was used.
c-Abl Pyruvate Kinase/Lactate Dehydrogenase Coupled Enzyme Assay
In the c-Abl Pyruvate Kinase (PK)/Lactate Dehydrogenase (LDH) Coupled Assay the protein kinase dependant phosphorylation of a substrate peptide was coupled to the oxidation of NADH. The oxidation of NADH to NAD+ was detected by monitoring a decrease in absorbance at 340 nm.
Materials: Abl substrate peptide=EAIYAAPFAKKK SEQ ID NO:1)-OH (Biopeptide, San Diego, Calif.); βNADH (Sigma Cat#N-8129, FW=709.4); 2M MgCl2; 1M HEPES buffer, pH 7.5; Phosphoenolpyruvate (PEP) (Sigma Cat#P-7002, FW=234); Lactate dehydrogenase (LDH) (Worthington Biochemical Cat#2756); Pyruvate Kinase (PK) (Sigma Cat#P-9136); ATP (Sigma Cat#A-3377, FW=551); Greiner 384-well UV star plate; and purified and unphosphorylated T315I Abl kinase domain.
Stock Solutions: 10 mM NADH (7.09 mg/ml in miliQH2O) made fresh daily; 10 mM Abl substrate peptide (13.4 mg/ml in miliQH2O) stored at −20° C.; 100 mM HEPES buffer, pH 7.5 (5 ml IM stock+45 ml miliQH2O); 100 mM MgCl2 (5 ml 2M MgCl2+95 ml dH2O); 100 mM PEP (23.4 mg/ml in dH2O) stored at −20° C.; 10 mM ATP (5.51 mg/ml in dH2O) stored at −20° C. (diluted 50 μl into total of 10 ml miliQH2O daily=50 μM ATP working stock); 1000 U/ml PK (U/mg varies with lot) flash-frozen under liquid N2 and stored at −80° C.; and 1000 U/ml LDH (U/mg varies with lot) flash-frozen under liquid N2 and stored at −80° C.
Standard Assay Setup for 384-well format (50 μl reaction): 300 μM NADH; 10 mM MgCl2; 2 mM PEP; 45 U/ml PK; 60 U/ml LDH; 200 μM Abl substrate peptide; 2.5 μl test compound (in DMSO); 2 μg/ml Abl kinase domain; 10 μM ATP; 100 mM HEPES buffer. Positive controls contained DMSO with no test compound. Negative controls contained 5 μl of 0.5M EDTA (50 mM in the assay). The dephosphorylated form of the c-Abl T315I mutant was used in the biochemical screening assays. The kinase reaction was initiated at time t=0 by the addition of ATP.
Activity was measured by following the time-dependent loss of NADH by absorbance spectroscopy at 340 nm. The linear portion of the resulting progress curve was then analyzed by linear regression to get the activity in absorbance units/time, reported as the slope of that best fit line (moles/unit time can be calculated from using molar extinction coefficient for NADH at 340 nm, 6250M^−1cm^−1).
Data was evaluated using the equation: Z′=1-[3*(σ++σ−)/|μ+−μ−|] (Zhang, et al., 1999 J Biomol Screening 4(2) 67-73), where […] the mean and σ the standard deviation. The subscript designates positive or negative controls. The Z′ score for a robust screening assay should be 0.50. The typical threshold=μ+−3*σ+. Any value that falls below the threshold was designated a “hit”.
Dose response was analyzed using the equation: y=min+{(max−min)/(1+10^[compound]-logIC50)}, where y is the observed initial slope, max=the slope in the absence of inhibitor, min=the slope at infinite inhibitor, and the IC50 is the [compound] that corresponds to ½ the total observed amplitude (Amplitude=max−min).
To measure modulation, activation, or inhibition of Abl KD, a test compound was added to the assay at a range of concentrations. Inhibitors may inhibit Abl KD activity at an IC50 in the micromolar range, the nanomolar range, or, for example, in the subnanomolar range.

Compound	IC50 [µM]
Oc1cccc(-c2cnc3[nH]nc(-c4ccccc4)c3c2)c1	< 1
c1ccc(-c2n[nH]c3ncc(-c4cccnc4)cc23)cc1	< 1
COc1ccccc1-c1n[nH]c2ncc(-c3cccc(C(=O)N(C)C)c3)cc12	< 1
COc1ccccc1-c1n[nH]c2ncc(-c3ccc(O)c(C(=O)N4CCOCC4)c3)cc12	< 1
CCOc1ccccc1-c1n[nH]c2ncc(-c3cccc(C(=O)N4CCOCC4)c3)cc12	< 1
Cc1cc(F)ccc1-c1n[nH]c2ncc(-c3cccc(C(=O)N4CCOCC4)c3)cc12	< 1
COc1c(F)cccc1-c1n[nH]c2ncc(-c3cccc(C(=O)N4CCOCC4)c3)cc12	< 1
Cc1ccsc1-c1n[nH]c2ncc(-c3cccc(C(=O)N4CCOCC4)c3)cc12	< 1
Cn1ccc2cc(-c3n[nH]c4ncc(-c5cccc(C(=O)N6CCOCC6)c5)cc34)ccc21	< 1
COc1ccccc1-c1n[nH]c2ncc(-c3ccc(C(=O)N4CCCC4)cc3)cc12	< 1
COc1ccccc1-c1n[nH]c2ncc(-c3ccc(C(=O)NC4CC4)cc3)cc12	< 1
COc1ccccc1-c1n[nH]c2ncc(-c3cnc4[nH]n(C)c(=O)c4c3)cc12	< 1
COc1ccccc1-c1n[nH]c2ncc(-c3cccc(S(=O)(=O)NC4CC4)c3)cc12	< 1
COc1ccccc1-c1n[nH]c2ncc(-c3cccc(C(=O)N4CCN(CCN(C)C)CC4)c3)cc12	< 1
CCN1CCN(C(=O)c2cccc(-c3cnc4[nH]nc(-c5cc(F)ccc5OC)c4c3)c2)CC1	< 1
COc1cc(-c2cnc3[nH]nc(-c4ccccc4)c3c2)ccc1O	< 1
COc1ccccc1-c1n[nH]c2ncc(-c3ccc(C(=O)N4CCOCC4)cc3)cc12	< 1

Further lines, results first:

IC50 [µM]	Compound
< 1	COc1ccccc1-c1n[nH]c2ncc(Br)cc12
< 1	c1ccc(-c2n[nH]c3ncc(-c4ccc5[nH]ccc5c4)cc23)cc1
< 1	COc1ccccc1-c1n[nH]c2ncc(-c3cccnc3)cc12
< 1	COc1ncc(-c2n[nH]c3ncc(-c4cccc(C(=O)N5CCOCC5)c4)cc23)c(OC)n1
< 1	COc1ccccc1-c1cnc2[nH]nc(-c3ccccc3OC)c2c1
< 1	COc1ccccc1-c1n[nH]c2ncc(-c3cccc(C(=O)NC(C)C)c3)cc12
< 1	O=C(c1cccc(-c2cnc3[nH]nc(-c4ccc5cc[nH]c5c4)c3c2)c1)N1CCOCC1
< 1	COc1ccccc1-c1n[nH]c2ncc(-c3cccc(C(=O)N4CCN(C)CC4)c3)cc12
< 1	CCc1ccccc1-c1n[nH]c2ncc(-c3cccc(C(=O)N4CCOCC4)c3)cc12
< 1	COc1ccccc1-c1n[nH]c2ncc(-c3cccc(C(=O)N4CCC(CO)CC4)c3)cc12
< 1	O=C(c1cccc(-c2cnc3[nH]nc(-c4cccc5cccnc45)c3c2)c1)N1CCOCC1
< 1	O=C(c1cccc(-c2cnc3[nH]nc(-c4ccncc4Cl)c3c2)c1)N1CCOCC1
< 1	COc1ccccc1-c1n[nH]c2ncc(-c3cccc(C(=O)N4CCCC4)c3)cc12
< 1	COc1cc(-c2cnc3[nH]cc(-c4ccc(C)cc4)c3n2)ccc1O
< 1	COc1ccccc1-c1n[nH]c2ncc(-c3ccc(C(=O)N4CCN(C)CC4)cc3)cc12
< 1	COc1ccccc1-c1n[nH]c2ncc(-c3ccc(C(=O)N4CCCCC4)cc3)cc12
< 1	COc1ccccc1-c1c[nH]c2ncc(-c3cccc(C(=O)N(C)C)c3)nc12
